The target of one assay is T1, p-AXL (Homo sapiens, UniProt P30530).
T1 construct: expressed in transfected cells; host or cells: HEK293T
T1 sequence (P30530 26-894): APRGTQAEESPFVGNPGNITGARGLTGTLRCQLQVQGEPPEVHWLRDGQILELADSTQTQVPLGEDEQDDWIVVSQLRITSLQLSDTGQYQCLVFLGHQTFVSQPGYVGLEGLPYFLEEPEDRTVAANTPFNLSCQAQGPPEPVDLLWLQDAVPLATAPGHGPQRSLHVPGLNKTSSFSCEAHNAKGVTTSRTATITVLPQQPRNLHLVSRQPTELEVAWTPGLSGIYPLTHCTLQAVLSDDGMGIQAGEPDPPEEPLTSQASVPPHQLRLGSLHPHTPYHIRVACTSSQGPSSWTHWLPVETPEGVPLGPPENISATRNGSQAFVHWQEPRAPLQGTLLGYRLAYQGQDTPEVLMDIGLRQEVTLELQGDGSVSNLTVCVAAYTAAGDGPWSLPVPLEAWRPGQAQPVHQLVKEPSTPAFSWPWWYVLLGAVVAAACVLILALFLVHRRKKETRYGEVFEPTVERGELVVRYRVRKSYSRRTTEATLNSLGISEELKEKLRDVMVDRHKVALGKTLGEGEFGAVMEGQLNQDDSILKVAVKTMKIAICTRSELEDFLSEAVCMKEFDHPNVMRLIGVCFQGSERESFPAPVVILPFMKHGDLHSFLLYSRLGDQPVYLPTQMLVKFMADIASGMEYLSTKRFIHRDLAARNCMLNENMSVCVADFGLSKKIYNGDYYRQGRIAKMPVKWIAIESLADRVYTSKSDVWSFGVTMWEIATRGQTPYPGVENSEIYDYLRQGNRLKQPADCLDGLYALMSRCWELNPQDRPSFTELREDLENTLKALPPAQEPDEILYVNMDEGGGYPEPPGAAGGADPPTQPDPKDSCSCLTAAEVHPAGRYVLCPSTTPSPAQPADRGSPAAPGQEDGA
The assay is described as follows: Axl phosphorylation inhibition ELISA in HEK293T cells transfected with NanoLuc-tagged AXL. In kind it is cell-based. As to conditions: 1 h compound incubation, media (OptiMEM). The gist of the method: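 HEK293T cells transiently transfected one day earlier with NanoLuc-tagged AXL were exposed to 22-point 2-fold compound dilutions for 1 h at 37° C (70,000 cells/well), then lysed. Lysates captured on anti-phospho-tyrosine coated plates for 2 h; bound p-AXL read by NanoLuc luminescence; IC50 from 4-parameter logistic fit.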

The next assay addresses T2, Axl (Homo sapiens, UniProt P30530).
T2 sequence (P30530 26-894): T1 sequence (P30530 26-894)
Kind of assay: Biochemical potency, HTRF KinEASE-TK kinase assay. The arrangement: purchased Invitrogen. The following applies: 5 nM AXL, 700 μM ATP. The gist of the method:
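Steps: compound plus kinase, 1 h RT; add ATP (700 µM final) and biotin-TK substrate (800 nM final); run 2 h RT; stop into streptavidin-XL665/anti-phospho cryptate detection mix, 1 h; read 665/620. AXL at 5 nM, TYRO3 and MER at 1 nM.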

SMILES strings stand for the structures. Where only a bound is given, the exact number is not on record here.

For `Cc1cccnc1-c1ccnc(-c2c[nH]c3ncc(-c4ccc5c(c4)CC[C@@H](N4C6COCC4C6)CC5)cc23)c1` [Example 83, 3-Methyl-2′-{5-[(7S)-7-{3-oxa-6-azabicyclo[3.1.1]heptan-6-yl}-6,7,8,9-tetrahydro-5H-benzo[7]annulen-2-yl]-1H-pyrrolo[2,3-b]pyridin-3-yl}-2,4′-bipyridine], the IC50 at p-AXL and against Axl was below 100 nM each time.

With `Cc1cccc(F)c1-c1ccc(-c2c[nH]c3ncc(-c4ccc5c(c4)CC[C@@H](N4C6COCC4C6)CC5)cc23)cc1` [Example 84, 6-[(7S)-2-(3-{2′-Fluoro-6′-methyl-[1,1′-biphenyl]-4-yl}-1H-pyrrolo[2,3-b]pyridin-5-yl)-6,7,8,9-tetrahydro-5H-benzo[7]annulen-7-yl]-3-oxa-6-azabicyclo[3.1.1]heptane], the results for the IC50 at p-AXL and against Axl were above 1000 nM and below 100 nM, respectively.

With `Cc1cccnc1-c1ccc(-c2n[nH]c3ncc(-c4ccc5c(c4)CC[C@@H](N[C@H]4CCCOC4)CC5)cc23)nc1` [Example 106, (3S)—N-[(7S)-2-(3-{3-Methyl-[2,3′-bipyridin]-6′-yl}-1H-pyrazolo[3,4-b]pyridin-5-yl)-6,7,8,9-tetrahydro-5H-benzo[7]annulen-7-yl]oxan-3-amine], the IC50 at p-AXL and on Axl was below 100 nM throughout.

For the compound `CO[C@H]1C[C@@H](N[C@H]2CCc3ccc(-c4cnc5[nH]nc(-c6ccc(-c7ncccc7C)cn6)c5c4)cc3CC2)C1` [Example 108, (7S)-2-(3-{3-Methyl-[2,3′-bipyridin]-6′-yl}-1H-pyrazolo[3,4-b]pyridin-5-yl)-N-[cis-3-methoxycyclobutyl]-6,7,8,9-tetrahydro-5H-benzo[7]annulen-7-amine], the IC50 against p-AXL and against Axl was below 100 nM in each case.

With `Cn1ncnc1-c1ccc(-c2c[nH]c3ncc(-c4ccc5c(c4)CC[C@@H](N4C6COCC4C6)CC5)cc23)cc1` [Example 133, 6-[(7S)-2-{3-[4-(1-Methyl-1H-1,2,4-triazol-5-yl)phenyl]-1H-pyrrolo[2,3-b]pyridin-5-yl}-6,7,8,9-tetrahydro-5H-benzo[7]annulen-7-yl]-3-oxa-6-azabicyclo[3.1.1]heptane], the IC50 at p-AXL and on Axl was below 100 nM in each case.

In the case of `Cn1ncnc1-c1ccc(-c2n[nH]c3ncc(-c4ccc5c(c4)CC[C@@H](N[C@H]4CCCOC4)CC5)cc23)cc1` [Example 134], the IC50 against p-AXL and against Axl was below 100 nM throughout.

For `Cn1ncnc1-c1ccc(-c2n[nH]c3ncc(-c4ccc5c(c4)CC[C@@H](N4C[C@@H]6C[C@H]4CO6)CC5)cc23)cc1` [Example 135, (1S,4S)-5-[(7S)-2-{3-[4-(1-Methyl-1H-1,2,4-triazol-5-yl)phenyl]-1H-pyrazolo[3,4-b]pyridin-5-yl}-6,7,8,9-tetrahydro-5H-benzo[7]annulen-7-yl]-2-oxa-5-azabicyclo[2.2.1]heptane], the IC50 against p-AXL and against Axl was below 100 nM each time.

Consider `Cc1ccc(C)c(-c2ccc(-c3n[nH]c4ncc(-c5ccc6c(c5)CC[C@@](C)(N5CCC[C@H]5C)CC6)cc34)cc2)n1` [Example 136, 3,6-Dimethyl-2-(4-{5-[(7S)-7-methyl-7-[(2R)-2-methylpyrrolidin-1-yl]-6,7,8,9-tetrahydro-5H-benzo[7]annulen-2-yl]-1H-pyrazolo[3,4-b]pyridin-3-yl}phenyl)pyridine], for which the IC50 on p-AXL and at Axl was below 100 nM throughout.

`Cc1ccc(C)c(-c2ccc(-c3c[nH]c4ncc(-c5ccc6c(c5)CC[C@@H](N5C7COCC5C7)CC6)cc34)cc2)n1` [Example 137, 6-[(7S)-2-{3-[4-(3,6-Dimethylpyridin-2-yl)phenyl]-1H-pyrrolo[2,3-b]pyridin-5-yl}-6,7,8,9-tetrahydro-5H-benzo[7]annulen-7-yl]-3-oxa-6-azabicyclo[3.1.1]heptane]: the IC50 against p-AXL and against Axl was below 100 nM throughout.

For `CCn1ncnc1-c1ccc(-c2n[nH]c3ncc(-c4ccc5c(c4)CC[C@@H](N4C6COCC4C6)CC5)cc23)cc1` [Example 138, 6-[(7S)-2-{3-[4-(1-Ethyl-1H-1,2,4-triazol-5-yl)phenyl]-1H-pyrazolo[3,4-b]pyridin-5-yl}-6,7,8,9-tetrahydro-5H-benzo[7]annulen-7-yl]-3-oxa-6-azabicyclo[3.1.1]heptane], the IC50 at p-AXL and on Axl was below 100 nM throughout.

As for `Cc1ccc(C)c(-c2ccc(-c3n[nH]c4ncc(-c5ccc6c(c5)CC[C@@H](N5CCCC5)CC6)cc34)cc2)n1` [Example 139, 3,6-Dimethyl-2-(4-{5-[(7S)-7-(pyrrolidin-1-yl)-6,7,8,9-tetrahydro-5H-benzo[7]annulen-2-yl]-1H-pyrazolo[3,4-b]pyridin-3-yl}phenyl)pyridine], the IC50 against p-AXL and on Axl was below 100 nM throughout.

Turning to `Cc1ccc(C)c(-c2ccc(-c3n[nH]c4ncc(-c5ccc6c(c5)CC[C@@H](N[C@H]5CCCOC5)CC6)cc34)cc2)n1` [Example 140, (3S)—N-[(7S)-2-{3-[4-(3,6-Dimethylpyridin-2-yl)phenyl]-1H-pyrazolo[3,4-b]pyridin-5-yl}-6,7,8,9-tetrahydro-5H-benzo[7]annulen-7-yl]oxan-3-amine], the IC50 against p-AXL and against Axl was below 100 nM in each case.

In the case of `Cc1ccc(C)c(-c2ccc(-c3n[nH]c4ncc(-c5ccc6c(c5)CC[C@@H](N5C[C@@H]7C[C@H]5CO7)CC6)cc34)cc2)n1` [Example 141, (1S,4S)-5-[(7S)-2-{3-[4-(3,6-Dimethylpyridin-2-yl)phenyl]-1H-pyrazolo[3,4-b]pyridin-5-yl}-6,7,8,9-tetrahydro-5H-benzo[7]annulen-7-yl]-2-oxa-5-azabicyclo[2.2.1]heptane], the IC50 against p-AXL and at Axl was below 100 nM each time.

On to `Cc1ccc(C)c(-c2ccc(-c3c[nH]c4ncc(-c5ccc6c(c5)CC[C@@H](N5C7COC[C@H]5C7)CC6)cc34)nc2)n1` [Example 142, 3,6-Dimethyl-6′-{5-[(7S)-7-[(1R)-3-oxa-6-azabicyclo[3.1.1]heptan-6-yl]-6,7,8,9-tetrahydro-5H-benzo[7]annulen-2-yl]-1H-pyrrolo[2,3-b]pyridin-3-yl}-2,3′-bipyridine], for which the IC50 on p-AXL and against Axl was below 100 nM throughout.

For `Cc1ccc(C)c(-c2ccc(-c3n[nH]c4ncc(-c5ccc6c(c5)CC[C@@H](N5C7COC[C@H]5C7)CC6)cc34)c(F)c2)n1` [Example 143, (1R)-6-[(7S)-2-{3-[4-(3,6-Dimethylpyridin-2-yl)-2-fluorophenyl]-1H-pyrazolo[3,4-b]pyridin-5-yl}-6,7,8,9-tetrahydro-5H-benzo[7]annulen-7-yl]-3-oxa-6-azabicyclo[3.1.1]heptane], the results for the IC50 at p-AXL and on Axl were 100 to 1000 nM and below 100 nM, respectively.

Regarding `Cc1ccc(C)c(-c2ccc(-c3c[nH]c4ncc(-c5ccc6c(c5)CC[C@@H](N5C7COC[C@H]5C7)CC6)cc34)c(F)c2)n1` [Example 144, (1R)-6-[(7S)-2-{3-[4-(3,6-Dimethylpyridin-2-yl)-2-fluorophenyl]-1H-pyrrolo[2,3-b]pyridin-5-yl}-6,7,8,9-tetrahydro-5H-benzo[7]annulen-7-yl]-3-oxa-6-azabicyclo[3.1.1]heptane], the IC50 at p-AXL and at Axl was below 100 nM each time.

`Cc1ccc(C(F)(F)F)nc1-c1ccc(-c2n[nH]c3ncc(-c4ccc5c(c4)CC[C@@H](N4C6COC[C@H]4C6)CC5)cc23)cc1` [Example 145, (1R)-6-[(7S)-2-(3-{4-[3-Methyl-6-(trifluoromethyl)pyridin-2-yl]phenyl}-1H-pyrazolo[3,4-b]pyridin-5-yl)-6,7,8,9-tetrahydro-5H-benzo[7]annulen-7-yl]-3-oxa-6-azabicyclo[3.1.1]heptane]: the results for the IC50 at p-AXL and against Axl were 100 to 1000 nM and below 100 nM, respectively.

`Cc1ccc(C(F)(F)F)nc1-c1ccc(-c2c[nH]c3ncc(-c4ccc5c(c4)CC[C@@H](N4C6COC[C@H]4C6)CC5)cc23)cc1` [Example 146, (1R)-6-[(7S)-2-(3-{4-[3-Methyl-6-(trifluoromethyl)pyridin-2-yl]phenyl}-1H-pyrrolo[2,3-b]pyridin-5-yl)-6,7,8,9-tetrahydro-5H-benzo[7]annulen-7-yl]-3-oxa-6-azabicyclo[3.1.1]heptane]: the IC50 against p-AXL was 100 to 1000 nM; against Axl, below 100 nM.

Source of the values: patent US12195482B1 (Arcus Biosciences, Inc., priority 2022, dated 2025).
